From patent publication US20260226071A1, “2, 4-DIANILINOPYRIMIDINE-BASED AURORA-A KINASE SELECTIVE DEGRADATION INDUCING COMPOUNDS” (UPPTHERA, INC., priority 2023, published 2026)

Tests used:
Aurora kinase A (AURKA) = target: T1, Aurora kinase A (AURKA) (Homo sapiens, UniProt O14965); assay: Luciferase assay for AURKA in HeLa LgBit (AURKA-HiBit KI) cell line; type: cell-based; conditions: HeLa LgBit (AURKA-HiBit KI) cells, measured after 12 hours
T1 construct: endogenous in cells; host or cells: HeLa LgBit (AURKA-HiBit KI), CRISPR/Cas9 knock-in at the endogenous AURKA locus
T1 sequence (O14965 1-403): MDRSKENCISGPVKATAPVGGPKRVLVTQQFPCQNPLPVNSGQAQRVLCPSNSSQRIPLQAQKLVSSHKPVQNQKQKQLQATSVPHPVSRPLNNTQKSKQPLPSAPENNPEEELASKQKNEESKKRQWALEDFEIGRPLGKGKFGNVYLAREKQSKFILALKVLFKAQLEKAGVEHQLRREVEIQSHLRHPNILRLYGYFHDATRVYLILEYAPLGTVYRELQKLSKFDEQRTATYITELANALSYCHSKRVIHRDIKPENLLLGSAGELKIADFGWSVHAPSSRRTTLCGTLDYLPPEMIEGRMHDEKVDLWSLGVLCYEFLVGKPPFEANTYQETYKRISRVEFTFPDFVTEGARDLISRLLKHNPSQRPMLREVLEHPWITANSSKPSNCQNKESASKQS
How it was run: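 Test compounds (10 nM or 100 nM) added to AURKA-HiBit knock-in HeLa LgBit cells that had been pre-loaded with Endurazine for 2 h following an 18 h culture at 3×10^4 cells. Endogenous AURKA-HiBit level followed by luminescence (470-480 nm), measured after 12 h.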

NCI-H446 cell line = assay: Cell viability assay for NCI-H446 cell line; type: cell-based; conditions: Homo sapiens, NCI-H446, 120 h; H446 cells, 5 days culture, EZ-Cytox; read-out: IC50 value (Level)
How it was run: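 Viability was measured by absorbance at 450 nm after 4 h with EZ-Cytox, following 5-day exposure of NCI-H446 cells (RPMI 1640, 10% FBS, 37 °C, 5% CO2) to 3-fold serial dilutions from 1000 nM down to 0.15 nM, added 24 h post-seeding.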

| luminescence value (Level) (Aurora kinase A (AURKA); 10 nM compound) | luminescence value (Level) (Aurora kinase A (AURKA); 100 nM compound) | Structure (SMILES) | IC50 (NCI-H446 cell line) |
| --- | --- | --- | --- |
| A (A is <0.3) | A (A is <0.2) | CN(CC1CCN(c2ccc(NC3CCC(=O)NC3=O)cc2F)CC1)[C@H]1CC[C@H](NC(=O)c2ccc(Nc3ncc(F)c(Nc4ccc(C(=O)Nc5ccccc5Cl)cc4)n3)cc2)CC1 (stereo partly drawn) [Compound 66, N-(2-chlorophenyl)-4-[[2-[4-[[4-[[1-[4-[(2,6-dioxo-3-piperidyl)amino]-2-fluoro-phenyl]-4-piperidyl]methyl-methyl-amino]cyclohexyl]carbamoyl]anilino]-5-fluoro-pyrimidin-4-yl]amino]benzamide] | < 50 nM |
| A (A is <0.3) | A (A is <0.2) | O=C1CCC(c2ccc(N3CCN(CCN4CCC(C(=O)Nc5ccc(Nc6ncc(F)c(Nc7ccc(C(=O)Nc8ccccc8Cl)cc7)n6)cc5)CC4)CC3)cc2)C(=O)N1 (stereo not drawn) [Compound 70, N-(4-((4-((4-((2-chlorophenyl)carbamoyl)phenyl)amino)-5-fluoropyrimidin-2-yl)amino)phenyl)-1-(2-(4-(4-(2,6-dioxopiperidin-3-yl)phenyl)piperazin-1-yl)ethyl)piperidine-4-carboxamide] | 50 to 100 nM |
| D (D is 0.7 to 0.8) | B (B is 0.2 to 0.4) | O=C1CCC(c2ccc(N3CCN(CCN4CCC(COc5ccc(Nc6ncc(F)c(Nc7ccc(C(=O)Nc8ccccc8Cl)cc7)n6)cc5)CC4)CC3)cc2)C(=O)N1 (stereo not drawn) [Compound 99, N-(2-chlorophenyl)-4-((2-((4-((1-(2-(4-(4-(2,6-dioxopiperidin-3-yl)phenyl)piperazin-1-yl)ethyl)piperidin-4-yl)methoxy)phenyl)amino)-5-fluoropyrimidin-4-yl)amino) benzamide] | > 200 nM |
| B (B is 0.3 to 0.5) | A (A is <0.2) | Cc1cc(N2CCN(CCC3CCN(NC(=O)c4ccc(Nc5ncc(F)c(Nc6ccc(C(=O)Nc7ccccc7Cl)cc6)n5)cc4)CC3)CC2)ccc1NC1CCC(=O)NC1=O (stereo not drawn) [Compound 85, N-(2-chlorophenyl)-4-((2-((4-((4-(2-(4-(4-((2,6-dioxopiperidin-3-yl)amino)-3-methylphenyl)piperazin-1-yl)ethyl)piperidin-1-yl)carbamoyl)phenyl)amino)-5-fluoropyrimidin-4-yl)amino)benzamide] | 150 to 200 nM |
| A (A is <0.3) | A (A is <0.2) | C[C@H]1CN(c2ccc(C3CCC(=O)NC3=O)cc2)CCN1CCC1CCN(NC(=O)c2ccc(Nc3ncc(F)c(Nc4ccc(C(=O)Nc5ccccc5Cl)cc4)n3)cc2)CC1 (stereo partly drawn) [Compound 113, N-(2-chlorophenyl)-4-((2-((4-((4-(2-((2S)-4-(4-(2,6-dioxopiperidin-3-yl)phenyl)-2-methylpiperazin-1-yl)ethyl)piperidin-1-yl)carbamoyl)phenyl)amino)-5-fluoropyrimidin-4-yl)amino)benzamide] | < 50 nM |
| A (A is <0.3) | A (A is <0.2) | O=C1CCC(c2ccc(N3CCN(CCC4CCN(NC(=O)c5ccc(Nc6ncc(F)c(Nc7ccc(C(=O)Nc8ccccc8Cl)cc7)n6)cc5)CC4)CC3)c(F)c2)C(=O)N1 (stereo not drawn) [Compound 48, N-(2-chlorophenyl)-4-((2-((4-((4-(2-(4-(4-(2,6-dioxopiperidin-3-yl)-2-fluorophenyl)piperazin-1-yl)ethyl)piperidin-1-yl)carbamoyl)phenyl)amino)-5-fluoropyrimidin-4-yl)amino)benzamide] | < 50 nM |
| A (A is <0.3) | A (A is <0.2) | C[C@H](CN1CCN(c2ccc(C3CCC(=O)NC3=O)cc2)CC1)C1CCN(NC(=O)c2ccc(Nc3ncc(F)c(Nc4ccc(C(=O)Nc5ccccc5Cl)cc4)n3)cc2)CC1 (stereo partly drawn) [Compound 63, N-(2-chlorophenyl)-4-((2-((4-((4-((2S)-1-(4-(4-(2,6-dioxopiperidin-3-yl)phenyl)piperazin-1-yl)propan-2-yl)piperidin-1-yl)carbamoyl)phenyl)amino)-5-fluoropyrimidin-4-yl)amino)benzamide] | < 50 nM |
